Assays:
[1] = DPPH radical scavenging test (free-radical trapping); format: biochemical; conditions: DPPH 0,5mM, 37°C, 30 minutes, absorbance at 517 nm; for % inhibition (C=25µM): compound 25µM; for % inhibition (C=80µM): compound 80µM; for % inhibition (C=): compound
Procedure: Cette étude mesure l'activité antiradicalaire d'un composé par capture du radical DPPH. Ce test est largement utilisé pour étudier la capacité d'un composé à donner un hydrogène.
L'activité se traduit par une décoloration du DPPH (violet). L'absorbance (densité optique DO) a été mesurée à 517 nm au bout de trente minutes sur un spectrophotomètre UV-visible thermostaté à 37°C. Le résultat est exprimé en pourcentage d'inhibition déterminé par la formule : [formula]
Cette activité a été comparée à celle des produits de référence vitamine E, acide férulique et vinylogue de l'acide férulique [dérivé (17)].

[2] = Auto-oxidation by the ferric thiocyanate (FTC) method: AAPH-induced lipid peroxidation of linoleic acid; format: biochemical; conditions: 25 micromoles; absorbance at 500nm versus time over five hours; activity not superior to that of acide férulique
Excerpt: Cette méthode met en évidence la capacité de capter le radical peroxyle par le dérivé à tester. La méthode est basée sur une peroxydation lipidique de l'acide linoléique, émulsionné par le Tween 20®.
Cette peroxydation est réalisée par action d'un initiateur de radicaux libres, le dihydrochlorhydrate de 2,2'-azobis(2-amidino)propane (AAPH). Le radical peroxyle formé réagit avec le dérivé à tester et conduit à la formation d'un hydroperoxyde et d'un radical alkoxyle ArO˙. Ce dernier réagit avec le radical peroxyle et permet la formation de produits non radicalaires.
Par ailleurs, les radicaux peroxyle continuent d'oxyder le substrat (l'acide linoléique) pour former également un hydroperoxyde. Cet hydroperoxyde oxyde le fer ferreux présent in situ pour conduire à la formation de fer ferrique Fe^3+ qui se complexe à l'anion thiocyanate.
Le complexe rouge de thiocyanate ferrique formé absorbe à 500nm.
Le degré d'oxydation est quantifié par l'absorbance mesurée. L'activité antioxydante du dérivé à tester est donc la capacité à retarder la peroxydation lipidique. Plus la durée pour atteindre le maximum d'absorbance est longue, plus l'antioxydant est puissant.
Cette étude est réalisée sur une période de cinq heures avec un intervalle de temps d'une heure. Le résultat est exprimé par l'absorbance en fonction du temps. La concentration des molécules dans le milieu est de 25 micromoles.

SMILES	% inhibition (C=25µM) [1]	% inhibition (C=80µM) [1]	% inhibition (C=) [1]	activité antioxydante [2]
COc1cc(/C=C/C(=O)O)ccc1O [Acide férulique, reference compound]	50%	78%	61%	
Cc1c(C)c2c(c(C)c1O)CC[C@@](C)(CCC[C@H](C)CCC[C@H](C)CCCC(C)C)O2 [Vit.E, vitamine E, reference compound]	41%	92%	86%	
COC(=O)c1scc(C)c1NC(=O)/C=C/c1ccc(O)c(OC)c1 [compound 3, 3-{[(2E)-3-(4-hydroxy-3-méthoxyphényl)prop-2-ènoyl]amino}-4-méthylthiophène-2-carboxylatede méthyle]	45%	72%	48%	ont une activité antioxydante
COc1cc(/C=C/C(=O)Nc2c(C)csc2C(=O)O)ccc1O [compound 4, Acide 3-{[(2E)-3-(4-hydroxy-3-méthoxyphényl)prop-2-ènoyl]amino}-4-méthylthiophène-2-carboxylique]	41%	50%	31%	ont une activité antioxydante
COc1cc(/C=C/C=C/C(=O)O)ccc1O [compound 17, Acide (2E,4E)-5-[4-hydroxy-3-méthoxyphényl]penta-2,4-diénoique, reference compound]	62%	81%	65%	
COC(=O)c1scc(C)c1NC(=O)/C=C/C=C/c1ccc(O)c(OC)c1 [compound 21, 3-{[(2E,4E)-5-(4-hydroxy-3-méthoxyphényl)penta-2,4-diènoyl]amino}-4-méthylthiophène-2-carboxylatede méthyle]	68%	93%	74%	ont une activité antioxydante
COc1cc(/C=C/C=C/C(=O)Nc2c(C)csc2C(=O)O)ccc1O [compound 22, Acide 3-{[(2E,4E)-5-(4-hydroxy-3-méthoxyphényl)penta-2,4-diènoyl]amino}-4-méthylthiophène-2-carboxylique]	50%	73%	54%	ont une activité antioxydante

From patent publication EP2556062B1, “AMIDE DERIVATIVES OF AVENALUMIC ACID, PROCESS FOR PREPARING SAME AND COSMETIC COMPOSITIONS CONTAINING SAME” (Produits Chimiques Auxiliaires et de Synthese, priority 2010, dated 2011)
